Source: publication PMC9934367, “Functional impact of subunit composition and compensation on Drosophila melanogaster nicotinic receptors–targets of neonicotinoids” (PLOS Genetics, 2023)

System: D. melanogaster nAChRs
Assay: Comparison of agonist activity between nAChRs expressed in X. laevis oocytes (one-way ANOVA, Kruskal-Wallis);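 as to Difference of Imax values: Imax relative to maximal plateau response to ACh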
Assay type: cell-based
Method: We minimised the use of X. laevis according to the UK Animals (Scientific Procedures) Act, 1986. […] Oocytes were defolliculated after collagenase treatment in Ca^2+-free standard oocyte saline (Ca^2+-free SOS). cRNAs of the nAChR subunits and co-factors mixed at a concentration of 0.1 mg/mL was injected into oocytes at a volume of 50 nL. Then the oocytes were incubated in the incubation medium (SOS supplemented with sodium pyruvate (Nacalai Tesque, #13058–12), penicillin-streptomycin (MilliporeSigma, #P4333), gentamycin (Nacalai Tesque, #16672–04), and 4% horse serum (Thermo Fisher Scientific, #26050–070) for 3−4 days prior to electrophysiology.
Each defolliculated X. laevis oocyte was secured in a Perspex recording chamber and perfused with the standard oocyte saline (SOS) containing 0.5 μM atropine (SOSA) at a flow rate of 7−10 mL/min [48]. Two glass electrodes filled with 2 M KCl were impaled into each oocyte and the membrane potential was clamped at -100 mV. […] The peak amplitude of the response was measured and analysed by pCLAMP (Molecular Devices, USA).
Y=Imax/1+10^(logEC50‐X)nH
Where Y is the normalised response, X is log[ligand (M)], EC50 is the half maximal concentration (M), Imax is the maximum normalised response and nH is the Hill coefficient.
Prism software was employed for the statistical analyses. […] One-way ANOVA was used to analyse the differences of the ligand agonist activity in terms of pEC50 on the various nAChRs expressed in X. laevis as well as data obtained with D. melanogaster larvae and adults.

[1] = Dα1/Dα2/Dα3/Dβ1 vs. Dα1/Dα2/Dα3/Dβ1/Dβ2
[2] = Dα1/Dα2/Dα3/Dβ1 vs. Dα1/Dα2/Dβ1/Dβ2
[3] = Dα1/Dα2/Dα3/Dβ1 vs. Dα1/Dα3/Dβ1/Dβ2
[4] = Dα1/Dα2/Dα3/Dβ1 vs. Dα1/Dβ1/Dβ2
[5] = Dα1/Dα2/Dα3/Dβ1 vs. Dα2/Dα3/Dβ1/Dβ2
[6] = Dα1/Dα2/Dα3/Dβ1 vs. Dα3/Dβ1/Dβ2
[7] = Dα1/Dα2/Dβ1/Dβ2 vs. Dα1/Dα2/Dα3/Dβ1/Dβ2
[8] = Dα1/Dα2/Dβ1/Dβ2 vs. Dα2/Dα3/Dβ1/Dβ2
[9] = Dα1/Dα2/Dβ1 vs. Dα1/Dα2/Dα3/Dβ1
[10] = Dα1/Dα2/Dβ1 vs. Dα1/Dα2/Dα3/Dβ1/Dβ2
[11] = Dα1/Dα2/Dβ1 vs. Dα1/Dα2/Dβ1/Dβ2
[12] = Dα1/Dα2/Dβ1 vs. Dα1/Dα3/Dβ1/Dβ2
[13] = Dα1/Dα2/Dβ1 vs. Dα2/Dα3/Dβ1/Dβ2
[14] = Dα1/Dα3/Dβ1/Dβ2 vs. Dα1/Dα2/Dα3/Dβ1/Dβ2
[15] = Dα1/Dα3/Dβ1/Dβ2 vs. Dα1/Dα2/Dβ1/Dβ2
[16] = Dα1/Dα3/Dβ1/Dβ2 vs. Dα2/Dα3/Dβ1/Dβ2
[17] = Dα1/Dα3/Dβ1 vs. Dα1/Dα2/Dα3/Dβ1
[18] = Dα1/Dα3/Dβ1 vs. Dα1/Dα2/Dα3/Dβ1/Dβ2
[19] = Dα1/Dα3/Dβ1 vs. Dα1/Dα2/Dβ1/Dβ2
[20] = Dα1/Dα3/Dβ1 vs. Dα1/Dα3/Dβ1/Dβ2
[21] = Dα1/Dα3/Dβ1 vs. Dα2/Dα3/Dβ1/Dβ2
[22] = Dα1/Dβ1/Dβ2 vs. Dα1/Dα2/Dα3/Dβ1/Dβ2
[23] = Dα1/Dβ1/Dβ2 vs. Dα1/Dα2/Dβ1/Dβ2
[24] = Dα1/Dβ1/Dβ2 vs. Dα1/Dα3/Dβ1/Dβ2
[25] = Dα1/Dβ1/Dβ2 vs. Dα2/Dα3/Dβ1/Dβ2
[26] = Dα1/Dβ1 vs. Dα1/Dα2/Dα3/Dβ1/Dβ2
[27] = Dα2/Dα3/Dβ1/Dβ2 vs. Dα1/Dα2/Dα3/Dβ1/Dβ2
[28] = Dα2/Dα3/Dβ1 vs. Dα1/Dα2/Dα3/Dβ1
[29] = Dα2/Dα3/Dβ1 vs. Dα1/Dα2/Dα3/Dβ1/Dβ2
[30] = Dα2/Dα3/Dβ1 vs. Dα1/Dα2/Dβ1/Dβ2
[31] = Dα2/Dα3/Dβ1 vs. Dα1/Dα3/Dβ1/Dβ2
[32] = Dα2/Dα3/Dβ1 vs. Dα2/Dα3/Dβ1/Dβ2
[33] = Dα3/Dβ1/Dβ2 vs. Dα1/Dα2/Dα3/Dβ1/Dβ2
[34] = Dα3/Dβ1/Dβ2 vs. Dα1/Dα2/Dβ1/Dβ2
[35] = Dα3/Dβ1/Dβ2 vs. Dα1/Dα3/Dβ1/Dβ2
[36] = Dα3/Dβ1/Dβ2 vs. Dα2/Dα3/Dβ1/Dβ2
[37] = Dα3/Dβ1 vs. Dα1/Dα2/Dα3/Dβ1/Dβ2

N#C/N=C1\SCCN1Cc1ccc(Cl)nc1 [Thiacloprid, thiacloprid]
Difference of pEC50 values, nAChRs compared (Dα1/Dα2/Dα3/Dβ1/Dβ2 vs. Dα1/Dα2/Dα4/Dβ1/Dβ2): 0.17
Difference of pEC50 values, nAChRs compared (Dα1/Dα2/Dα3/Dβ1/Dβ2 vs. Dα1/Dα2/Dβ1/Dβ2/Dβ3): -0.53
Difference of pEC50 values, nAChRs compared (Dα1/Dα2/Dα3/Dβ1/Dβ2 vs. Dα1/Dα3/Dα4/Dβ1/Dβ2): -0.78
Difference of pEC50 values, nAChRs compared (Dα1/Dα2/Dα3/Dβ1/Dβ2 vs. Dα1/Dα3/Dβ1/Dβ2/Dβ3): -1.45
Difference of pEC50 values, nAChRs compared (Dα1/Dα2/Dα3/Dβ1/Dβ2 vs. Dα2/Dα3/Dα4/Dβ1/Dβ2): -0.81
Difference of pEC50 values, nAChRs compared (Dα1/Dα2/Dα3/Dβ1/Dβ2 vs. Dα2/Dα3/Dβ1/Dβ2/Dβ3): -1.13
Difference of Imax values [1]: -0.012
Difference of pEC50 values [1]: 0.55
Difference of Imax values [2]: -0.027
Difference of pEC50 values [2]: 0.63
Difference of Imax values [3]: -0.060
Difference of pEC50 values [3]: -0.27
Difference of Imax values [4]: 0.004
Difference of pEC50 values [4]: -0.13
Difference of Imax values [5]: 0.030
Difference of pEC50 values [5]: -0.35
Difference of Imax values [6]: 0.025
Difference of pEC50 values [6]: -0.59
Difference of Imax values [7]: 0.015
Difference of pEC50 values [7]: -0.08
Difference of Imax values [8]: 0.057
Difference of pEC50 values [8]: -0.98
Difference of Imax values [9]: -0.022
Difference of pEC50 values [9]: -0.81
Difference of Imax values [10]: -0.034
Difference of pEC50 values [10]: -0.26
Difference of Imax values [11]: -0.049
Difference of pEC50 values [11]: -0.18
Difference of Imax values [12]: -0.082
Difference of pEC50 values [12]: -1.08
Difference of Imax values (Dα1/Dα2/Dβ1 vs. Dα1/Dβ1/Dβ2): -0.018
Difference of pEC50 values (Dα1/Dα2/Dβ1 vs. Dα1/Dβ1/Dβ2): -0.94
Difference of Imax values (Dα1/Dα2/Dβ1 vs. Dα2/Dα3/Dβ1): -0.020
Difference of pEC50 values (Dα1/Dα2/Dβ1 vs. Dα2/Dα3/Dβ1): 0.00
Difference of Imax values [13]: 0.008
Difference of pEC50 values [13]: -1.16
Difference of Imax values (Dα1/Dα2/Dβ1 vs. Dα3/Dβ1/Dβ2): 0.003
Difference of pEC50 values (Dα1/Dα2/Dβ1 vs. Dα3/Dβ1/Dβ2): -1.40
Difference of Imax values [14]: 0.048
Difference of pEC50 values [14]: 0.82
Difference of Imax values [15]: 0.033
Difference of pEC50 values [15]: 0.90
Difference of Imax values [16]: 0.090
Difference of pEC50 values [16]: -0.08
Difference of Imax values [17]: 0.000
Difference of pEC50 values [17]: 0.34
Difference of Imax values [18]: -0.012
Difference of pEC50 values [18]: 0.89
Difference of Imax values (Dα1/Dα3/Dβ1 vs. Dα1/Dα2/Dβ1): 0.022
Difference of pEC50 values (Dα1/Dα3/Dβ1 vs. Dα1/Dα2/Dβ1): 1.15
Difference of Imax values [19]: -0.027
Difference of pEC50 values [19]: 0.97
Difference of Imax values [20]: -0.060
Difference of pEC50 values [20]: 0.07
Difference of Imax values (Dα1/Dα3/Dβ1 vs. Dα1/Dβ1/Dβ2): 0.004
Difference of pEC50 values (Dα1/Dα3/Dβ1 vs. Dα1/Dβ1/Dβ2): 0.21
Difference of Imax values (Dα1/Dα3/Dβ1 vs. Dα2/Dα3/Dβ1): 0.002
Difference of pEC50 values (Dα1/Dα3/Dβ1 vs. Dα2/Dα3/Dβ1): 1.15
Difference of Imax values [21]: 0.030
Difference of pEC50 values [21]: -0.01
Difference of Imax values (Dα1/Dα3/Dβ1 vs. Dα3/Dβ1/Dβ2): 0.025
Difference of pEC50 values (Dα1/Dα3/Dβ1 vs. Dα3/Dβ1/Dβ2): -0.25
Difference of Imax values [22]: -0.016
Difference of pEC50 values [22]: 0.68
Difference of Imax values [23]: -0.031
Difference of pEC50 values [23]: 0.76
Difference of Imax values [24]: -0.064
Difference of pEC50 values [24]: -0.14
Difference of Imax values [25]: 0.026
Difference of pEC50 values [25]: -0.22
Difference of Imax values (Dα1/Dβ1/Dβ2 vs. Dα3/Dβ1/Dβ2): 0.021
Difference of pEC50 values (Dα1/Dβ1/Dβ2 vs. Dα3/Dβ1/Dβ2): -0.46
Difference of Imax values (Dα1/Dβ1 vs. Dα1/Dα2/Dα3/Dβ1): 0.044
Difference of pEC50 values (Dα1/Dβ1 vs. Dα1/Dα2/Dα3/Dβ1): 0.06
Difference of Imax values [26]: 0.032
Difference of pEC50 values [26]: 0.61
Difference of Imax values (Dα1/Dβ1 vs. Dα1/Dα2/Dβ1): 0.066
Difference of pEC50 values (Dα1/Dβ1 vs. Dα1/Dα2/Dβ1): 0.87
Difference of Imax values (Dα1/Dβ1 vs. Dα1/Dα2/Dβ1/Dβ2): 0.017
Difference of pEC50 values (Dα1/Dβ1 vs. Dα1/Dα2/Dβ1/Dβ2): 0.69
Difference of Imax values (Dα1/Dβ1 vs. Dα1/Dα3/Dβ1): 0.044
Difference of pEC50 values (Dα1/Dβ1 vs. Dα1/Dα3/Dβ1): -0.28
Difference of Imax values (Dα1/Dβ1 vs. Dα1/Dα3/Dβ1/Dβ2): -0.016
Difference of pEC50 values (Dα1/Dβ1 vs. Dα1/Dα3/Dβ1/Dβ2): -0.21
Difference of Imax values (Dα1/Dβ1 vs. Dα1/Dβ1/Dβ2): 0.048
Difference of pEC50 values (Dα1/Dβ1 vs. Dα1/Dβ1/Dβ2): -0.07
Difference of Imax values (Dα1/Dβ1 vs. Dα2/Dα3/Dβ1): 0.046
Difference of pEC50 values (Dα1/Dβ1 vs. Dα2/Dα3/Dβ1): 0.87
Difference of Imax values (Dα1/Dβ1 vs. Dα2/Dα3/Dβ1/Dβ2): 0.074
Difference of pEC50 values (Dα1/Dβ1 vs. Dα2/Dα3/Dβ1/Dβ2): -0.29
Difference of Imax values (Dα1/Dβ1 vs. Dα3/Dβ1): 0.075
Difference of pEC50 values (Dα1/Dβ1 vs. Dα3/Dβ1): -0.01
Difference of Imax values (Dα1/Dβ1 vs. Dα3/Dβ1/Dβ2): 0.069
Difference of pEC50 values (Dα1/Dβ1 vs. Dα3/Dβ1/Dβ2): -0.53
Difference of Imax values [27]: -0.042
Difference of pEC50 values [27]: 0.90
Difference of Imax values [28]: -0.002
Difference of pEC50 values [28]: -0.81
Difference of Imax values [29]: -0.014
Difference of pEC50 values [29]: -0.26
Difference of Imax values [30]: -0.029
Difference of pEC50 values [30]: -0.18
Difference of Imax values [31]: -0.062
Difference of pEC50 values [31]: -1.08
Difference of Imax values (Dα2/Dα3/Dβ1 vs. Dα1/Dβ1/Dβ2): 0.002
Difference of pEC50 values (Dα2/Dα3/Dβ1 vs. Dα1/Dβ1/Dβ2): -0.94
Difference of Imax values [32]: 0.028
Difference of pEC50 values [32]: -1.16
Difference of Imax values (Dα2/Dα3/Dβ1 vs. Dα3/Dβ1/Dβ2): 0.023
Difference of pEC50 values (Dα2/Dα3/Dβ1 vs. Dα3/Dβ1/Dβ2): -1.40
Difference of Imax values [33]: -0.037
Difference of pEC50 values [33]: 1.14
Difference of Imax values [34]: -0.052
Difference of pEC50 values [34]: 1.22
Difference of Imax values [35]: -0.085
Difference of pEC50 values [35]: 0.32
Difference of Imax values [36]: 0.005
Difference of pEC50 values [36]: 0.24
Difference of Imax values (Dα3/Dβ1 vs. Dα1/Dα2/Dα3/Dβ1): -0.031
Difference of pEC50 values (Dα3/Dβ1 vs. Dα1/Dα2/Dα3/Dβ1): 0.07
Difference of Imax values [37]: -0.043
Difference of pEC50 values [37]: 0.62
Difference of Imax values (Dα3/Dβ1 vs. Dα1/Dα2/Dβ1): -0.009
Difference of pEC50 values (Dα3/Dβ1 vs. Dα1/Dα2/Dβ1): 0.88
Difference of Imax values (Dα3/Dβ1 vs. Dα1/Dα2/Dβ1/Dβ2): -0.058
Difference of pEC50 values (Dα3/Dβ1 vs. Dα1/Dα2/Dβ1/Dβ2): 0.70
Difference of Imax values (Dα3/Dβ1 vs. Dα1/Dα3/Dβ1): -0.031
Difference of pEC50 values (Dα3/Dβ1 vs. Dα1/Dα3/Dβ1): -0.27
Difference of Imax values (Dα3/Dβ1 vs. Dα1/Dα3/Dβ1/Dβ2): -0.091
Difference of pEC50 values (Dα3/Dβ1 vs. Dα1/Dα3/Dβ1/Dβ2): -0.20
Difference of Imax values (Dα3/Dβ1 vs. Dα1/Dβ1/Dβ2): -0.027
Difference of pEC50 values (Dα3/Dβ1 vs. Dα1/Dβ1/Dβ2): -0.06
Difference of Imax values (Dα3/Dβ1 vs. Dα2/Dα3/Dβ1): -0.029
Difference of pEC50 values (Dα3/Dβ1 vs. Dα2/Dα3/Dβ1): 0.88
Difference of Imax values (Dα3/Dβ1 vs. Dα2/Dα3/Dβ1/Dβ2): -0.001
Difference of pEC50 values (Dα3/Dβ1 vs. Dα2/Dα3/Dβ1/Dβ2): -0.28
Difference of Imax values (Dα3/Dβ1 vs. Dα3/Dβ1/Dβ2): -0.006
Difference of pEC50 values (Dα3/Dβ1 vs. Dα3/Dβ1/Dβ2): -0.52
